# Literature values in patent publication US20150216798A1, “NOVEL ORALLY ADMINISTERED PHARMACEUTICAL FORMULATIONS” (Sanovel Ilac Sanayi Ve Ticaret Anonim Sirketi, priority 2012, published 2015).
# Settings: after oral administration
smiles,measurement,value
"CN1CC(=O)N2[C@H](c3ccc4c(c3)OCO4)c3[nH]c4ccccc4c3C[C@@H]2C1=O [Tadalafil, (6R-trans)-6-(1,3-benzodioxol-5-yl)-2,3,6,7,12,12a-hexahydro-2-methyl-pyrazine [1′,2′:1,6]pyrido[3,4-b]indol-1,4-dion]",duration of effect,≤ 36 h
same,onset of action,15 min
